Assay results reported in PMC12392461, “Beyond Estrogenicity: A Comparative Assessment of Bisphenol A and Its Alternatives in In Vitro Assays Questions Safety of Replacements” (Environmental Science & Technology, 2025).
Like-named read-outs stand apart in the source and are kept apart here.

Assays:
[1] = test system: H4IIe (AhR CALUX); conditions: for IC10, linear transformed / IC10, linear / logIC10: Bioassay AhR, dosing range all; for IC10, linear transformed / IC10, linear / logIC10 / IC10, H4IIe, AhR: cytotoxicity; for IC10, linear: linear model fit; for logIC10: log-logistic model fit; for Toxic ratio (TR) TRAhR: against baseline cytotoxicity; for IC10, H4IIe, AhR: H4IIe (AhR assay cells)
Protocol: (§1) Cell culture conditions and bioassay protocols including response detection are provided in Text S2.1–2.4 and Table S3. − Cell viability was determined from cell confluency using an IncuCyte S3 Live-Cell Analysis System (Sartorius AG, Essen, Germany) before and after exposure, except for SH-SY5Y cells (live–dead staining with Nuclear Green LcS1 and propidium iodide, Abcam, UK). For metabolic activation experiments, cell viability was assessed using the ToxBLAzer DualScreen Kit (Thermo Fisher Scientific) to capture the remaining toxicity in ERα-UAS-bla GripTite after treatment with the aCYP catalyst (details in Text S2.4).
(§2) For ARE, the concentration that triggered an induction ratio of 1.5 (ECIR1.5) was used as the benchmark value, as detailed in Text S2.5. IC10 values also served as a threshold for data analysis in all assays; only concentrations below IC10 were considered when deriving EC10 or ECIR1.5.
(§3) We measured the cytotoxicity of BPA and its alternatives in HEK293H (PPARγ), HEK293T (ERα), H4IIe (AhR CALUX), MCF7 (ARE/MMP), and differentiated SH-SY5Y cells (Table S6). […]
(§4) S2.2: Cell Seeding and Incubation. For all bioassays, cell suspensions in the respective assay medium were dispensed into each well of 384-well plates using a MultiFlo Dispenser (Biotek, (now Agilent), Winooski, VT, U.S.). After seeding, the plates were incubated at 37° C and 5% CO₂ for […]. The final cell densities and plate types were as follows: Black poly-D-lysine […]
(§5) 6500 cells/well, ERα: 5000 cells/well. White 384-well plates with a clear bottom (Product No.
(§6) NYC, U.S.) for AhR: 3250 cells/well. Black Collagen I coated plates were used (Product No.
(§7) S2.3: Chemical Dosing and Assay Analysis Procedures. The dosing procedure and high-throughput assay workflow have been described in detail before. 9 The dosing concentrations […]
(§8) Stock solutions were then either added directly to the respective cell culture medium or evaporated under nitrogen, followed by replenishment with fresh medium. The final solvent content in each well was kept below 1% for methanol, 0% for acetonitrile.
(§9) Dosing plates were prepared as 11 -step serial dilutions using a Hamilton Microlab Star robotic system (Hamilton, Bonaduz, Switzerland), and chemicals were dosed in duplicates by transferring 10 μL twice from the dosing plates to the cell plates . After quantifying cell confluency as described in S2. 4., the exposed cells were incubated at 37° C and 5% CO₂ for an additional 24 h. All chemicals were tested in all assays with at least three independent […]
(§10) S2.4: Cell Viability Measurement s and bioanalytical protocols . The confluency as a measure of cell viability was determined with an IncuCyte S3 Live -Cell Analysis System (Sartorius AG, Essen, Germany). With this method the confluency of cells in a microscopy image are normalized to control wells without cells and compared before and after 24 hours of exposure.
(§11) This method has been described previously 13. […]

[2] = test system: HEK293H (PPARγ); conditions: for IC10, linear transformed / IC10, linear / logIC10: PPARγ bioassay cytotoxicity; for IC10, linear: linear model; for logIC10: log-logistic model; for Toxic ratio (TR) TRPPARγ: against baseline cytotoxicity; for IC10, HEK293, PPARγ: cytotoxicity, HEK293 (PPARγ assay cells)
Protocol: as §1, §2, §3, §4, §5, §6, §7, §8, §9, §10, §11

[3] = test system: HEK293T (ERα); conditions: for IC10, linear transformed / IC10, linear / logIC10: Bioassay ERα, dosing range all; for IC10, linear transformed / IC10, linear / logIC10 / IC10, HEK293, ERα: cytotoxicity; for IC10, linear: linear model fit; for logIC10: log-logistic model fit; for Toxic ratio (TR) TRERα: against baseline cytotoxicity; for IC10, HEK293, ERα: HEK293 (ERα assay cells)
Protocol: as §1, §2, §3, §4, §5, §6, §7, §8, §9, §10, §11

[4] = test system: MCF7 (ARE/MMP); conditions: for IC10, linear transformed / IC10, linear / logIC10: dosing range all; for Toxic ratio (TR) TRARE / Toxic ratio (TR) TRMMP: against baseline cytotoxicity; for Toxic ratio (TR) TRARE: ARE readout; for Toxic ratio (TR) TRMMP: MMP readout; for IC10, MCF7, ARE: MCF7, ARE readout; for IC10, MCF7, MMP: MCF7, MMP readout
Protocol: as §1, §2, §3, §4, §5, §6, §7, §8, §9, §10, §11

[5] = test system: SH-SY5Y cells; conditions: for IC10, linear transformed / IC10, linear / logIC10: NOI bioassay cytotoxicity, dosing range all; for IC10, linear: linear model; for logIC10: log-logistic model; for IC10, SH-S5Y5, NOI: cytotoxicity, NOI assay cells
Protocol: as §1, with “S2.4). […]” for “S2.4).”
as §3
medium, supplemented with 2% B-27 Supplement and 2 mM GlutaMAX Supplement. SH - SY5Y cells were differentiated with 10 µM all-trans retinoic acid prior to the assay.
S2.2: Cell Seeding and Incubation. For all bioassays, cell suspensions in the respective assay medium were dispensed into each well of 384-well plates using a MultiFlo Dispenser (Biotek, (now Agilent), Winooski, VT, U.S.). After seeding, the plates were incubated at 37° C and 5% […]
as §6, §7, §8, §9, §10
This method has been described previously 13. Cell viability of SH-SY5Y cells was measured […]
propidium iodide (PI, Abcam, Cambridge, U.K.).14 Nuclear Green LCS1 is a membrane-permeable dye that stains the nuclei of all cells, whereas PI only enters cells with compromised membrane integrity (non-viable cells). After staining, live cells show green nuclei without red fluorescence, while dead cells display both green and red nuclear fluorescence due to PI […]
intercalation. […]

[6] = Bioassay ARE, cytotoxicity, linear model fit
[7] = Bioassay ARE, cytotoxicity, log-logistic model fit
[8] = MMP bioassay cytotoxicity, linear model
[9] = MMP bioassay cytotoxicity, log-logistic model

| Structure (SMILES) | IC10, linear transformed [1] | IC10, linear [1] | logIC10 [1] | Toxic ratio (TR) TRAhR [1] | IC10, H4IIe, AhR [1] [µM] | IC10, HEK293, PPARγ [2] [µM] | IC10, linear transformed [3] | IC10, linear [3] | logIC10 [3] | IC10, HEK293, ERα [3] [µM] | IC10, linear transformed ([4]; Bioassay ARE, cytotoxicity) | IC10, linear [4, 6] | logIC10 [4, 7] | IC10, linear transformed ([4]; MMP bioassay cytotoxicity) | IC10, linear [4, 8] | logIC10 [4, 9] | IC10, MCF7, ARE ([4]; cytotoxicity) [µM] | IC10, MCF7, MMP ([4]; cytotoxicity) [µM] | IC10, linear [5] | logIC10 [5] | further results |
| --- | --- | --- | --- | --- | --- | --- | --- | --- | --- | --- | --- | --- | --- | --- | --- | --- | --- | --- | --- | --- | --- |
| CC(C)(c1ccc(O)c(-c2ccccc2)c1)c1ccc(O)c(-c2ccccc2)c1 [BPPH, 2,2-Bis(2-hydroxy-5-biphenylyl)propane] | 1.81E-05 | 1.29E-05 | -4.74 | 0.32 | 12.9 | 6.92 | 5.43E-06 | no cytotoxicity | -5.08 | 8.3 | 2.86E-06 | 5.76E-06 | -5.54 | 7.75E-06 | 5.66E-06 | -5.11 | 2.86 | 7.75 | no cytotoxicity | -4.64 | IC10, linear transformed ([2]; dosing range all): 4.34E-06; IC10, linear ([2]; dosing range all): 8.25E-06; logIC10 ([2]; dosing range all): -5.16; Toxic ratio (TR) TRPPARγ [2]: 0.15; Toxic ratio (TR) TRERα [3]: 0.13; Toxic ratio (TR) TRARE [4]: 1.43; Toxic ratio (TR) TRMMP [4]: 0.53; IC10, linear transformed [5]: 2.31E-05; Toxic ratio (TR) TRNOI ([5]; against baseline cytotoxicity): 0.08; IC10, SH-S5Y5, NOI [5]: 23.1 µM |
| C=CCOc1ccc(S(=O)(=O)c2ccc(O)cc2)cc1 [BPS-MAE, 4-[[4-(Allyloxy)phenyl]sulfonyl]phenol] | 8.61E-05 | 8.24E-05 | -4.07 |  | 82.4 | 57.5 | 6.22E-05 | 2.44E-04 | -3.85 | 244 | 3.86E-04 | 4.93E-04 | -3.41 | 8.44E-04 | 1.02E-03 | -3.07 | 386 | 844 | no cytotoxicity | -3.87 | IC10, linear transformed ([2]; dosing range all): 1.96E-05; IC10, linear ([2]; dosing range all): 9.34E-05; logIC10 ([2]; dosing range all): -4.24; IC10, linear transformed [5]: 1.36E-04; IC10, SH-S5Y5, NOI [5]: 136 µM |
| O=S(=O)(c1ccc(O)cc1)c1ccc(OCc2ccccc2)cc1 [BPS-MPE, 4-[4-(benzyloxy)benzenesulfonyl]phenol] | 5.80E-05 | 5.18E-05 | -4.24 | 0.68 | 51.8 | 134 | 3.17E-05 | 1.12E-04 | -4.00 | 112 | 7.91E-05 | 1.19E-04 | -4.10 | 1.23E-04 | 1.88E-04 | -3.91 | 79.1 | 123 | no cytotoxicity | no cytotoxicity | IC10, linear transformed ([2]; dosing range high): 9.04E-06; IC10, linear ([2]; dosing range high): 1.34E-04; logIC10 ([2]; dosing range high): -3.96; IC10, linear transformed ([2]; dosing range low): 1.83E-05; IC10, linear ([2]; dosing range low): 1.11E-05; logIC10 ([2]; dosing range low): -5.06; Toxic ratio (TR) TRPPARγ [2]: 0.09; Toxic ratio (TR) TRERα [3]: 0.10; Toxic ratio (TR) TRARE [4]: 0.45; Toxic ratio (TR) TRMMP [4]: 0.29 |
